According to PMC9967118, “Influence of Mutations of Conserved Arginines on Neuropeptide Binding in the DPP III Active Site” (Molecules, 2023):
Where no end group is shown, it is not given here.

Key:
[1] = target: T1, Human DPP3 wild-type (WT) (Homo sapiens, UniProt Q9NY33); assay: Inhibition of DPP III catalyzed hydrolysis of Arg2-2NA, wild-type enzyme; assay type: biochemical; conditions: WT hDPP III 1 nM; substrate Arg2-2NA 0.25–100 μM; 20 mM Tris-Cl pH 7.4, 25 °C, 2 min pre-incubation; fluorescence of 2NA; competitive inhibition; best fit ± standard error; inhibitor tynorphin 1–50 nM, valorphin 15–150 nM
T1 construct: made in house; host or cells: E. coli
T1 sequence (Q9NY33 1-737): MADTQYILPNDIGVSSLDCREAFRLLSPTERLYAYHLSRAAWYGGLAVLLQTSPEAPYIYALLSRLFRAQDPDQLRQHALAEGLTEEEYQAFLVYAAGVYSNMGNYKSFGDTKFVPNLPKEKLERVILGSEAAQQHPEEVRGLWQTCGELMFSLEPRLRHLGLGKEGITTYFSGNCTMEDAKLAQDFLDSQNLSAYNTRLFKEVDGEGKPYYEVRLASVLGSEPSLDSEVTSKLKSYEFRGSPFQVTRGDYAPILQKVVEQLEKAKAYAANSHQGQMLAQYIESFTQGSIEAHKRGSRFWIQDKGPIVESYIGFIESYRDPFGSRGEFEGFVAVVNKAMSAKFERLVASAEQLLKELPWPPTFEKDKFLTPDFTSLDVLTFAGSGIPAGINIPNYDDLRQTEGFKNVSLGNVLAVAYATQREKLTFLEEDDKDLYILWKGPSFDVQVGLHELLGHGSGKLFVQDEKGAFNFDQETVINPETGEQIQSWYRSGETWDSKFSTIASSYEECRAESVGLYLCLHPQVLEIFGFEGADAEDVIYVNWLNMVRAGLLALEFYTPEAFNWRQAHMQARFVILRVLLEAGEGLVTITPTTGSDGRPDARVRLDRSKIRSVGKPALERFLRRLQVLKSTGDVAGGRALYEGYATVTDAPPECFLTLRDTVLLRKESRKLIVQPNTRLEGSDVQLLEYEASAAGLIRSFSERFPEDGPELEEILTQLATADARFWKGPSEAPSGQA
Description: (§1) Human DPP3 wild-type (WT) and variants R669A and R669M were expressed in E. coli and purified using IMAC, as described in detail recently. Briefly, variants were prepared using a QuikChange II site-directed mutagenesis kit (Agilent Technologies, Santa Clara, CA, USA) while following the manufacturer’s instructions, with the hDPP3 gene on a pET21a plasmid as template. Complementary primer pairs were ordered from Macrogen Europe (The Netherlands) with the following sequences:
(§2) Proteins were expressed in E. coli for approximately 20 h at 18 °C, shaken at 120 rpm, and paired with 0.25 mM IPTG as an expression inductor. Cell pellets were lysed with lysosyme and with sonication; the lysate was then purified with DNAse I and through centrifugation, and affinity chromatography was performed on a Rotigarose His/Ni column. Lysis, wash, and elution buffers contained imidazole at concentrations of 10 mM, 20 mM, and 300 mM, respectively, and all buffers contained 50 mM Tris pH = 8.0, 300 mM NaCl. Fractions were pooled based on protein concentration (determined by using a BioDrop microvolume spectrophotometer) and purity (assessed by SDS-PAGE), and they were desalted on a PD-10 column with 20 mM Tris-Cl buffer, pH = 7.5. Aliquots were frozen and stored at −80 °C.
(§3) Enzyme kinetics were measured using an Agilent Cary Eclipse fluorescence spectrophotometer (Agilent Technologies, Santa Clara, CA, USA) with Arg2-2NA as a substrate analog and fluorescent 2NA as the product of the peptidase reaction. The assay has been described in detail previously. Arg2-2NA and peptide in 20 mM Tris-Cl buffer pH = 7.4 were pre-incubated at 25 °C for 2 min before the reaction was started by adding the enzyme into the cuvette. Substrate concentrations ranged from 0.25 to 100 μM. The peptide (inhibitor) concentrations were chosen so the output could be easily measured. […] Three peptide concentrations were used for each peptide. The enzyme concentration was 1 nM in all measurements.

[2] = target: T2, Human DPP3 variant R669A (Homo sapiens, UniProt Q9NY33, R669A); assay: Inhibition of DPP III catalyzed hydrolysis of Arg2-2NA, R669A variant; assay type: biochemical
T2 construct: made in house; host or cells: E. coli
T2 sequence (Q9NY33 1-737 R669A): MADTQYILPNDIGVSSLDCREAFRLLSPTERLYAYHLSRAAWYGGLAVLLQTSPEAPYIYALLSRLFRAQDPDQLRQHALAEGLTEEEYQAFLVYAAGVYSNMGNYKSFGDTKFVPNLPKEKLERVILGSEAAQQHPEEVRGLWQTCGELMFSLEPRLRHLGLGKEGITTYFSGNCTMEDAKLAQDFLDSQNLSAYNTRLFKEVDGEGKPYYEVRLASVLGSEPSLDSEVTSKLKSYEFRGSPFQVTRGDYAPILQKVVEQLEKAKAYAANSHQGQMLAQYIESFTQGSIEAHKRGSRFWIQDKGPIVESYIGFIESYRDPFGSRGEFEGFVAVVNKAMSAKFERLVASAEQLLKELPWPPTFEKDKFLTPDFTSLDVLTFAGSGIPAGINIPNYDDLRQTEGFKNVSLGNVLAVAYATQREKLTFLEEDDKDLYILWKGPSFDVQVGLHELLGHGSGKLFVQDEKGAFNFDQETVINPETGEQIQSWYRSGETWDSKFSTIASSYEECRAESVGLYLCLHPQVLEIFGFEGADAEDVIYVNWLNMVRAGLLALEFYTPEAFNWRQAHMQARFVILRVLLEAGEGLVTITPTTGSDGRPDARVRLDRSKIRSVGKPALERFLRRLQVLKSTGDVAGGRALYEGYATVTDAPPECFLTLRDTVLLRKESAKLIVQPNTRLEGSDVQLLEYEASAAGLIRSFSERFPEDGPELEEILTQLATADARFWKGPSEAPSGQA
Description: as §1, §2, §3

[3] = target: T3, Human DPP3 variant R669M (Homo sapiens, UniProt Q9NY33, R669M); assay: Inhibition of DPP III catalyzed hydrolysis of Arg2-2NA, R669M variant; assay type: biochemical; conditions: R669M hDPP III 1 nM; substrate Arg2-2NA 0.25–100 μM; 20 mM Tris-Cl pH 7.4, 25 °C, 2 min pre-incubation; fluorescence of 2NA; competitive inhibition; best fit ± standard error; tynorphin 1–5 μM, valorphin 0.75–11.2 μM
T3 construct: made in house; host or cells: E. coli
T3 sequence (Q9NY33 1-737 R669M): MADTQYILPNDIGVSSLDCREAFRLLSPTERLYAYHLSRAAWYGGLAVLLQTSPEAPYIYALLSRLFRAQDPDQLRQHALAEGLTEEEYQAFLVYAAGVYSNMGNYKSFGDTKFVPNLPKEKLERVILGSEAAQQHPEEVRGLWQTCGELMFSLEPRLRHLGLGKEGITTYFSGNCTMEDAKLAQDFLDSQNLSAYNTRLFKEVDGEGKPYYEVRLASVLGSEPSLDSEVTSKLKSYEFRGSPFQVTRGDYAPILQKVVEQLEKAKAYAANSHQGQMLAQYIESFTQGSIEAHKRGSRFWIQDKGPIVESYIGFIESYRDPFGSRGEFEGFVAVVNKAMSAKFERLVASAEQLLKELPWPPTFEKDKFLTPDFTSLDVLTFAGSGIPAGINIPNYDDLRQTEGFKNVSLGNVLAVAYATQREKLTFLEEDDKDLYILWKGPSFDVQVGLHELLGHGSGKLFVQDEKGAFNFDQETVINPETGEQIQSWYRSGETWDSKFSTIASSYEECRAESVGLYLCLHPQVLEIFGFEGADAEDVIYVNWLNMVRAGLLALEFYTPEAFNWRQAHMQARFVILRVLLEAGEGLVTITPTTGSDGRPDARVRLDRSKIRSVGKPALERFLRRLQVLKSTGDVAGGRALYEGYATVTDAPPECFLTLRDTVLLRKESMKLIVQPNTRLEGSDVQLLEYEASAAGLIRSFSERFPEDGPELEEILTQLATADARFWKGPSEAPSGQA
Description: as §1, §2, §3

[4] = system: human DPP III (hDPP III); set-up: method as in 2 sources, one per row (each row's own in cited_ref): ref 17 = [17]; PMID 35163780; doi:10.3390/ijms23031858; 17. Tomić A. Tomić S. Demystifying DPP III Catalyzed Peptide Hydrolysis—Computational Study of the Complete Catalytic Cycle of Human DPP III Catalyzed Tynorphin Hydrolysis Int. J. Mol. Sci. 2022 23 18 ||| ref 18 = [18]; PMID 36116590; doi:10.1016/j.ijbiomac.2022.09.119; 18. Karačić Z. Šupljika F. Tomić A. Brkljačić L. Paić A.T. Ćehić M. Tomić S. Neuropeptides, Substrates and Inhibitors of Human Dipeptidyl Peptidase III, Experimental and Computational Study—A New Subs; conditions: computational and experimental study of neuropeptides; cited from earlier work
Description: Despite the efforts of numerous scientists, knowledge about the role that DPP III might play in various physiological processes is still unclear. […] In this and in QM/MM studies ...

Substance	Ki [1] [µM]	Ki [2] [µM]	Ki [3] [µM]	in vitro substrate identification / substrate class with hDPP III [4]
VVYPW [tynorphin]	0.0112 ± 0.0008	0.328 ± 0.025	0.102 ± 0.016	
β-casomorphin				in vitro substrates of hDPP III
VVYPWTQ [valorphin]	0.0365 ± 0.0029	1.21 ± 0.224	0.406 ± 0.033	
